Results from ChEMBL document CHEMBL1154277, “Discovery of N-substituted pyridinones as potent and selective inhibitors of p38 kinase” (Bioorg Med Chem Lett, 2009).

Columns and labels:
[1] = target: Ephrin type-B receptor 1 (Homo sapiens) (UniProt P54762); experiment: Inhibition of EPHB1 at 10 uM
[2] = target: Ephrin type-B receptor 3 (Homo sapiens) (UniProt P54753); experiment: Inhibition of EPHB3 at 10 uM
[3] = target: Tyrosine-protein kinase Fes/Fps (Homo sapiens) (UniProt P07332); experiment: Inhibition of FES at 10 uM
[4] = target: Inhibitor of nuclear factor kappa-B kinase subunit epsilon (Homo sapiens) (UniProt Q14164); experiment: Inhibition of IKKepsilon at 10 uM
[5] = target: Insulin receptor-related protein (Homo sapiens) (UniProt P14616); experiment: Inhibition of INSRR at 10 uM
[6] = target: Tyrosine-protein kinase ITK/TSK (Homo sapiens) (UniProt Q08881); experiment: Inhibition of ITK at 10 uM
[7] = target: Tyrosine-protein kinase JAK2 (Homo sapiens) (UniProt O60674); experiment: Inhibition of JAK2 at 10 uM
[8] = target: Tyrosine-protein kinase Lyn (Homo sapiens) (UniProt P07948); experiment: Inhibition of LYN A at 10 uM
Chain of Tyrosine-protein kinase Lyn (Homo sapiens) (P07948 2-512 limits assumed): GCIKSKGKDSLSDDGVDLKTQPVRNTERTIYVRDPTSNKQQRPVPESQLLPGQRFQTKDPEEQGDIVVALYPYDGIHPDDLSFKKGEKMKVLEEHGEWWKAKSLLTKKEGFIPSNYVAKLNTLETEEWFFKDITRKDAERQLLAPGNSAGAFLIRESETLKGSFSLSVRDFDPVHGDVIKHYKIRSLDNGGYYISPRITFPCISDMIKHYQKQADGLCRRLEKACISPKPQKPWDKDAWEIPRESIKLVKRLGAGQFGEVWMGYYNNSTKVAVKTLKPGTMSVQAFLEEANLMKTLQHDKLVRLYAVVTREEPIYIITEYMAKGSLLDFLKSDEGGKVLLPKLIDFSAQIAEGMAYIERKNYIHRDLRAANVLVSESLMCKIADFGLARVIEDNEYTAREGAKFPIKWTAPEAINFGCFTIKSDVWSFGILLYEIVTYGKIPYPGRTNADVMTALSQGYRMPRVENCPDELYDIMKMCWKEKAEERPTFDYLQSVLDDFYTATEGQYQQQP

[9] = target: Tyrosine-protein kinase Lyn (Homo sapiens) (UniProt P07948); experiment: Inhibition of LYN B at 10 uM
[10] = target: Mitogen-activated protein kinase kinase kinase kinase 4 (Homo sapiens) (UniProt O95819); experiment: Inhibition of HGK at 10 uM
[11] = Inhibition of KHS1 at 10 uM
[12] = target: Tyrosine-protein kinase HCK (Homo sapiens) (UniProt P08631); experiment: Inhibition of HCK at 10 uM
[13] = target: Homeodomain-interacting protein kinase 1 (Homo sapiens) (UniProt Q86Z02); experiment: Inhibition of HIPK1 at 10 uM
[14] = target: Mitogen-activated protein kinase 13 (Homo sapiens) (UniProt O15264); experiment: Inhibition of p38delta at 10 uM
[15] = target: Hepatocyte growth factor receptor (Homo sapiens) (UniProt P08581); experiment: Inhibition of cMet at 10 uM
[16] = target: Myosin light chain kinase 2, skeletal/cardiac muscle (Homo sapiens) (UniProt Q9H1R3); experiment: Inhibition of MYLK2 at 10 uM
[17] = target: Serine/threonine-protein kinase Nek1 (Homo sapiens) (UniProt Q96PY6); experiment: Inhibition of NEK1 at 10 uM
Chain of Serine/threonine-protein kinase Nek1 (Homo sapiens) (Q96PY6 whole entry): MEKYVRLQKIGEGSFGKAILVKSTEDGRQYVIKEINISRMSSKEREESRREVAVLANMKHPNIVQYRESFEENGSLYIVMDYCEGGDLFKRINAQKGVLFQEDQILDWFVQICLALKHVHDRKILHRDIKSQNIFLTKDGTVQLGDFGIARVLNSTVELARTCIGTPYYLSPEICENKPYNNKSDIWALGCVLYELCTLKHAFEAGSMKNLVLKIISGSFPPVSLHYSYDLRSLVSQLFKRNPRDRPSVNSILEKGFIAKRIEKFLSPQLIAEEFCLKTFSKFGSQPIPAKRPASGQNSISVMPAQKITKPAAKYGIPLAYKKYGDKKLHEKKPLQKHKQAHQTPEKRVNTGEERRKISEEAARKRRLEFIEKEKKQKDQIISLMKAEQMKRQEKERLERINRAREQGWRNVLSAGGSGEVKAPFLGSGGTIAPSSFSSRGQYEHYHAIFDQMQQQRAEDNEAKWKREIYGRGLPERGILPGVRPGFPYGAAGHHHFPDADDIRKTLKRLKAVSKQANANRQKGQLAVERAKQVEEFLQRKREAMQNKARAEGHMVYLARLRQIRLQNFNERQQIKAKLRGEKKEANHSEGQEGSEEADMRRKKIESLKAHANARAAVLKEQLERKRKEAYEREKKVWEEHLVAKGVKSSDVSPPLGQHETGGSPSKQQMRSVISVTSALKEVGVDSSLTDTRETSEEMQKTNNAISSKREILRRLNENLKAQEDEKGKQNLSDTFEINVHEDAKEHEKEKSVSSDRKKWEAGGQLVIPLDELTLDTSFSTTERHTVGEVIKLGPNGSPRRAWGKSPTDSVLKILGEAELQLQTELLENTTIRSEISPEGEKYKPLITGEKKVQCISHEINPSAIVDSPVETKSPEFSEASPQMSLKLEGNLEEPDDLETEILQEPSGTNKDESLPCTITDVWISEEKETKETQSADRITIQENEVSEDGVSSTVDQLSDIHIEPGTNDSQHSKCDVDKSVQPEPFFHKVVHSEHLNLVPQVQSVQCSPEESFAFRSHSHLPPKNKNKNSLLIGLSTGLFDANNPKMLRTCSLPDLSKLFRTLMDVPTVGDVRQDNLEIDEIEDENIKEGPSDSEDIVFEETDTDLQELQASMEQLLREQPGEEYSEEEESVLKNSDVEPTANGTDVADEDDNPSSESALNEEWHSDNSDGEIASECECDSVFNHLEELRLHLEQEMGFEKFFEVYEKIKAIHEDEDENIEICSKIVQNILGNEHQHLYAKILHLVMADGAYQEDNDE

[18] = target: Serine/threonine-protein kinase Nek2 (Homo sapiens) (UniProt P51955); experiment: Inhibition of NEK2 at 10 uM
Chain of Serine/threonine-protein kinase Nek2 (Homo sapiens) (P51955 whole entry): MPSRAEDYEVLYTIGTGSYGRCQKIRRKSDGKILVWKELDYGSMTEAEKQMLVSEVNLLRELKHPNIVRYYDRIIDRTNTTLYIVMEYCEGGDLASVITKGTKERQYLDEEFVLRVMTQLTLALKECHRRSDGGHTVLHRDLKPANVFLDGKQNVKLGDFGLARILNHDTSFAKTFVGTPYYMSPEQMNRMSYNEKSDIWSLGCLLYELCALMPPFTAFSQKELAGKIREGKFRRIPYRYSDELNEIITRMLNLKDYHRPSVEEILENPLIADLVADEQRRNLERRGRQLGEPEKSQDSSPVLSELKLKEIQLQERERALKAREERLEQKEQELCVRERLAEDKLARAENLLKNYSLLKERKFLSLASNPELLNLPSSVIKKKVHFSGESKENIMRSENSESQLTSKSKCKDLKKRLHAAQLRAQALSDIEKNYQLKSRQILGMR

[19] = target: High affinity nerve growth factor receptor (Homo sapiens) (UniProt P04629); experiment: Inhibition of TRKA at 10 uM
[20] = target: Serine/threonine-protein kinase PAK 4 (Homo sapiens) (UniProt O96013); experiment: Inhibition of PAK4 at 10 uM
[21] = target: Serine/threonine-protein kinase PAK 6 (Homo sapiens) (UniProt Q9NQU5); experiment: Inhibition of PAK6 at 10 uM
[22] = system: Platelet-derived growth factor receptor alpha (Homo sapiens), P16234 [T674I]; experiment: Inhibition of PDGFRalpha T674I (mutant) at 10 uM
[23] = target: Phosphorylase b kinase gamma catalytic chain, skeletal muscle/heart isoform (Homo sapiens) (UniProt Q16816); experiment: Inhibition of PHKgamma1 at 10 uM
[24] = target: Phosphorylase b kinase gamma catalytic chain, liver/testis isoform (Homo sapiens) (UniProt P15735); experiment: Inhibition of PHKgamma2 at 10 uM
[25] = Inhibition of PKA at 10 uM
[26] = target: Protein kinase C beta type (Homo sapiens) (UniProt P05771); experiment: Inhibition of PKCbeta2 at 10 uM
[27] = target: Protein kinase C eta type (Homo sapiens) (UniProt P24723); experiment: Inhibition of PKCeta at 10 uM
[28] = target: Protein kinase C theta type (Homo sapiens) (UniProt Q04759); experiment: Inhibition of PKCtheta at 10 uM
[29] = target: Proto-oncogene tyrosine-protein kinase ROS (Homo sapiens) (UniProt P08922); experiment: Inhibition of ROS1 at 10 uM
[30] = target: Ribosomal protein S6 kinase alpha-4 (Homo sapiens) (UniProt O75676); experiment: Inhibition of MSK2 at 10 uM
[31] = target: Ribosomal protein S6 kinase alpha-6 (Homo sapiens) (UniProt Q9UK32); experiment: Inhibition of RSK4 at 10 uM
[32] = target: Ribosomal protein S6 kinase beta-1 (Homo sapiens) (UniProt P23443); experiment: Inhibition of p70S6K at 10 uM
[33] = target: SRSF protein kinase 2 (Homo sapiens) (UniProt P78362); experiment: Inhibition of SRPK2 at 10 uM
[34] = target: Serine/threonine-protein kinase TBK1 (Homo sapiens) (UniProt Q9UHD2); experiment: Inhibition of TBK1 at 10 uM
[35] = target: Tyrosine-protein kinase receptor TYRO3 (Homo sapiens) (UniProt Q06418); experiment: Inhibition of RSE at 10 uM
[36] = target: Tyrosine-protein kinase ZAP-70 (Homo sapiens) (UniProt P43403); experiment: Inhibition of ZAP70 at 10 uM
[37] = Clearance in po dosed Sprague-Dawley rat; type: ADME, organism-based; details: in vivo
[38] = Oral bioavailability in Sprague-Dawley rat; type: ADME, organism-based; details: in vivo
[39] = target: Inhibitor of nuclear factor kappa-B kinase subunit alpha (Homo sapiens) (UniProt O15111); experiment: Inhibition of IKKalpha at 10 uM
Chain of Inhibitor of nuclear factor kappa-B kinase subunit alpha (Homo sapiens) (O15111 whole entry): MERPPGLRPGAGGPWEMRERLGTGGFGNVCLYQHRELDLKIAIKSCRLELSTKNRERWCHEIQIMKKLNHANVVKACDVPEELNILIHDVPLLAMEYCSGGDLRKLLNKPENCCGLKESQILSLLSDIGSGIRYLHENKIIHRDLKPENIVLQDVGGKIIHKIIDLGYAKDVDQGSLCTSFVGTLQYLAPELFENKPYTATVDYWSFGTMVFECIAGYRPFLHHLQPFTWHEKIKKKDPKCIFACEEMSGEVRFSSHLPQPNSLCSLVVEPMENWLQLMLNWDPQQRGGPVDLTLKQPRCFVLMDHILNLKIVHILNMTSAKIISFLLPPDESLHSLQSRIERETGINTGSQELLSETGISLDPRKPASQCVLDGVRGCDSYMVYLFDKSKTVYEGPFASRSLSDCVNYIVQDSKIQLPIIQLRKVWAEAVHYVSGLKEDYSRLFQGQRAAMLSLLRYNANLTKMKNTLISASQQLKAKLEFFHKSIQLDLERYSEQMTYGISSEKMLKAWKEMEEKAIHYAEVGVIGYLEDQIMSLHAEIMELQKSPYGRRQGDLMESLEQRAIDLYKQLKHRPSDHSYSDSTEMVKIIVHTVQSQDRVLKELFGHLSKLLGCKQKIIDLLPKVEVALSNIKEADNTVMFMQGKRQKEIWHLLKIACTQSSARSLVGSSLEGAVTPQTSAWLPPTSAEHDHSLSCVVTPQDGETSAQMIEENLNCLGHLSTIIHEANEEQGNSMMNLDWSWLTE

[40] = target: Serine/threonine-protein kinase haspin (Homo sapiens) (UniProt Q8TF76); experiment: Inhibition of GSG2 at 10 uM
[41] = system: Tyrosine-protein kinase ABL1 (Homo sapiens), P00519 [Y253F]; experiment: Inhibition of ABL1 Y253F (mutant) at 10 uM
[42] = target: Aurora kinase C (Homo sapiens) (UniProt Q9UQB9); experiment: Inhibition of Aurora C at 10 uM
[43] = target: Tyrosine-protein kinase Blk (Homo sapiens) (UniProt P51451); experiment: Inhibition of BLK at 10 uM
[44] = target: Cytoplasmic tyrosine-protein kinase BMX (Homo sapiens) (UniProt P51813); experiment: Inhibition of BMX at 10 uM
Chain of Cytoplasmic tyrosine-protein kinase BMX (Homo sapiens) (P51813 whole entry): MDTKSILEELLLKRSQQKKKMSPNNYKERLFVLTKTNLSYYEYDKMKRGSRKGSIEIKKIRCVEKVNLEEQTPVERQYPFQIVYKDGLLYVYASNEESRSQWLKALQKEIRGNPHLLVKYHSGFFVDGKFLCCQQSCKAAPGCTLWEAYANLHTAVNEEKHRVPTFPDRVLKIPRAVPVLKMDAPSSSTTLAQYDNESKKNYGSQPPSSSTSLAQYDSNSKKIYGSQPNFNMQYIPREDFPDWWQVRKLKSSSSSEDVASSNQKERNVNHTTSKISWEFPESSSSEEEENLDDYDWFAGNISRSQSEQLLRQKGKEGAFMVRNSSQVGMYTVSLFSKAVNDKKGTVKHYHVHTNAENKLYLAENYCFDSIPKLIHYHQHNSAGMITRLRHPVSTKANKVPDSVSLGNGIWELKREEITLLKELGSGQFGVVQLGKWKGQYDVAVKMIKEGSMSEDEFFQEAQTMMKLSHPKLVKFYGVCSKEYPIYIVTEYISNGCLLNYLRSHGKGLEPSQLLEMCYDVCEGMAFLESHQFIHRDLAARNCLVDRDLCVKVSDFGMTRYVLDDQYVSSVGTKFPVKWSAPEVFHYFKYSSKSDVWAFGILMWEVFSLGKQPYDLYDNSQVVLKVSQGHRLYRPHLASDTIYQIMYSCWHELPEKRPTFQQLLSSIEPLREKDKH

[45] = system: Serine/threonine-protein kinase B-raf (Homo sapiens), P15056 [V600E]; experiment: Inhibition of B-Raf V599E (mutant) at 10 uM
[46] = target: Calcium/calmodulin-dependent protein kinase type 1D (Homo sapiens) (UniProt Q8IU85); experiment: Inhibition of CAMK1delta at 10 uM
Chain of Calcium/calmodulin-dependent protein kinase type 1D (Homo sapiens) (Q8IU85 whole entry, looked up): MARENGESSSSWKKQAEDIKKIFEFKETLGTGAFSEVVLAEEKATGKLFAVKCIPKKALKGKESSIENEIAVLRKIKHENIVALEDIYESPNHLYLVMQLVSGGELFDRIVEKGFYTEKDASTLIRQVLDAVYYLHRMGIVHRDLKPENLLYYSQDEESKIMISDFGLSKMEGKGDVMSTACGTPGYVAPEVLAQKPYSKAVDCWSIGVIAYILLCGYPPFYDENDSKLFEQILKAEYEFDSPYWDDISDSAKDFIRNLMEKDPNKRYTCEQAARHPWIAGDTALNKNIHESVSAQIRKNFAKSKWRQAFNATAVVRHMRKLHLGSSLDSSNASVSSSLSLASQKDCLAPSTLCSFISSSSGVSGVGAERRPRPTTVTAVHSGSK

[47] = target: Serine/threonine-protein kinase MRCK alpha (Homo sapiens) (UniProt Q5VT25); experiment: Inhibition of MRCKalpha at 10 uM
[48] = target: Casein kinase I isoform delta (Homo sapiens) (UniProt P48730); experiment: Inhibition of CSNK1D at 10 uM
[49] = system: Epidermal growth factor receptor (Homo sapiens), P00533 [L861Q]; experiment: Inhibition of EGFR L861Q (mutant) at 10 uM; type: protein assay

Chain of Ephrin type-B receptor 1 (Homo sapiens) (P54762 whole entry): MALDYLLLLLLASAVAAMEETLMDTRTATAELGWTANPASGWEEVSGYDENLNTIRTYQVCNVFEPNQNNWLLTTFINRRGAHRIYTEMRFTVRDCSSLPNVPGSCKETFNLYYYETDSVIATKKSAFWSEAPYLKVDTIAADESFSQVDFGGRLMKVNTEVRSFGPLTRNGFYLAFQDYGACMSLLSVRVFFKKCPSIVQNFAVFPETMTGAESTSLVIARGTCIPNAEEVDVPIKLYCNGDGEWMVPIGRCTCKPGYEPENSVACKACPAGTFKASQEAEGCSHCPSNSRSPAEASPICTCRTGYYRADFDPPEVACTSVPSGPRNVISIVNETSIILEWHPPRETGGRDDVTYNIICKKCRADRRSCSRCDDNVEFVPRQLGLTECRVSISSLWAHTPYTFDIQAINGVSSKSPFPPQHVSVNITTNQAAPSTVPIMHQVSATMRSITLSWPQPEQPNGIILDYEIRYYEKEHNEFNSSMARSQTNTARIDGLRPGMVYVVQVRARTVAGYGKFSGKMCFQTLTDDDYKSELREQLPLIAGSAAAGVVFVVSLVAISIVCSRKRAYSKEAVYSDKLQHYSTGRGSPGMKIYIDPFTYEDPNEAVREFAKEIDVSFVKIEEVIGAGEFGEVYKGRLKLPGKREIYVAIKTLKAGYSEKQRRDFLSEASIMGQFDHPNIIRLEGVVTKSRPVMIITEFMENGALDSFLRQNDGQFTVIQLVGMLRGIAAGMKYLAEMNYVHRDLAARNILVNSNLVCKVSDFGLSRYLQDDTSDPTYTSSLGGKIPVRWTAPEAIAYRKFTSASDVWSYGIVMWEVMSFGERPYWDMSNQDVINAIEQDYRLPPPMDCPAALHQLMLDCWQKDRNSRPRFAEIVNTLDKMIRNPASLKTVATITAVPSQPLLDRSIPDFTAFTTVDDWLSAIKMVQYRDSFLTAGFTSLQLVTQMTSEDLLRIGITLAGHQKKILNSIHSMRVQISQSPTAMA

Structure (SMILES): Cc1cc(OCc2ccc(F)cc2F)c(Br)c(=O)n1Cc1ccc(CN(C)C)cc1
- inhibition [1]: < 50%
- inhibition [2]: < 50%
- inhibition [3]: < 50%
- inhibition [4]: < 50%
- inhibition [5]: < 50%
- inhibition [6]: < 50%
- inhibition [7]: < 50%
- inhibition [8]: < 50%
- inhibition [9]: < 50%
- inhibition [10]: < 50%
- inhibition [11]: < 50%
- inhibition [12]: < 50%
- inhibition [13]: < 50%
- inhibition [14]: < 50%
- inhibition [15]: < 50%
- inhibition [16]: < 50%
- inhibition [17]: < 50%
- inhibition [18]: < 50%
- inhibition [19]: < 50%
- inhibition [20]: < 50%
- inhibition [21]: < 50%
- inhibition [22]: < 50%
- inhibition [23]: < 50%
- inhibition [24]: < 50%
- inhibition [25]: < 50%
- inhibition [26]: < 50%
- inhibition [27]: < 50%
- inhibition [28]: < 50%
- inhibition [29]: < 50%
- inhibition [30]: < 50%
- inhibition [31]: < 50%
- inhibition [32]: < 50%
- inhibition [33]: < 50%
- inhibition [34]: < 50%
- inhibition [35]: < 50%
- inhibition [36]: < 50%
- CL/F [37]: 70 mL/min/kg
- bioavailability [38]: 91%
- inhibition [39]: < 50%
- inhibition [40]: < 50%
- inhibition [41]: < 50%
- inhibition [42]: < 50%
- inhibition [43]: < 50%
- inhibition [44]: < 50%
- inhibition [45]: < 50%
- inhibition [46]: < 50%
- inhibition [47]: < 50%
- inhibition [48]: < 50%
- inhibition [49]: < 50%
